The values below come from BindingDB's records for doi:10.1021/jm00023a011 (Agricultural University of Athens, 1995).

SMILES strings stand for the structures.

Usually IC50 stands for the point on the concentration scale where inhibition reaches its midpoint. Higher therefore signals lower potency.

The first assay has as its target T1, Phospholipase A1 member A (Rattus norvegicus, UniProt P97535).
T1 sequence (P97535 whole entry): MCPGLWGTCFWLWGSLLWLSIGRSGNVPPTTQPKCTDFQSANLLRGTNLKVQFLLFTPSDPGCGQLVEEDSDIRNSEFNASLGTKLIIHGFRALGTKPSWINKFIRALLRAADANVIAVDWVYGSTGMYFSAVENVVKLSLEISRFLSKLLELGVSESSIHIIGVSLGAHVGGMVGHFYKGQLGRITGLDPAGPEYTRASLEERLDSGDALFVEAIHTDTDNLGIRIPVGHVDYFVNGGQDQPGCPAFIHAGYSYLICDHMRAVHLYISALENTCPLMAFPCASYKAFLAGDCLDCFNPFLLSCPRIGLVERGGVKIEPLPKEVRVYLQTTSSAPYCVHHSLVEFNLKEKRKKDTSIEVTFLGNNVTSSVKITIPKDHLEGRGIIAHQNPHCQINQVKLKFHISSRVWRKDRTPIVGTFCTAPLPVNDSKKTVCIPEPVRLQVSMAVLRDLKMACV
In words: IC50 was measured as concentration causing 50% inhibition of lysosomal phospholipase A1 activity.
With `CCNC1CC(N)C(OC2OC(CNC(=O)C(C)N)=CCC2N)C(O)C1OC1OCC(C)(O)C(NC)C1O` (centres undefined), inhibition was half-maximal at 91.4 µM (IC50).
In turn, `CC(N)C(=O)NCC1OC(OC2C(N)CC(N)C(OC3OC(CO)C(O)C(N)C3O)C2O)C(O)C(O)C1O` (centres undefined) came in with an IC50 of 75.5 µM.
Consider `NC[C@H]1O[C@H](O[C@H]2[C@H](O)[C@@H](O[C@H]3O[C@H](CO)[C@@H](O)[C@H](N)[C@H]3O)[C@H](N)C[C@@H]2N)[C@H](O)[C@@H](O)[C@@H]1O` [CHEBI:17630], for which the IC50 worked out at 80.4 µM.
With `CN[C@@H]1[C@@H](O)[C@@H](O[C@@H]2[C@@H](O)[C@H](O[C@H]3O[C@H]([C@@H](C)NC)CC[C@H]3N)[C@@H](N)C[C@H]2N)OC[C@]1(C)O` [GENTAMICIN], 94.2 µM corresponded to half-maximal inhibition (IC50).
In turn, `CCN[C@@H]1C[C@H](N)[C@@H](O[C@H]2OC(CN)=CC[C@H]2N)[C@H](O)[C@H]1O[C@H]1OC[C@](C)(O)[C@H](NC)[C@H]1O` [Netilmicin] showed an IC50 of 115 µM.

The target in the next assay is T1, Phospholipase A1 member A. In words: IC50 was measured as concentration causing 50% inhibition of lysosomal phospholipase A1 activity.
On to `CCNC1CC(N)C(OC2OC(CNC(=O)C(N)CC(=O)O)=CCC2N)C(O)C1OC1OCC(C)(O)C(NC)C1O` (centres undefined), for which inhibition was half-maximal at 132 µM (IC50).
For `CCN[C@@H]1C[C@H](N)[C@@H](O[C@H]2OC(CNC(=O)[C@H](C)NC(=O)[C@H](C)N)=CC[C@H]2N)[C@@H](O)[C@H]1O[C@H]1OC[C@](C)(O)[C@H](NC)[C@@H]1O`, half-maximal inhibition (IC50) was put at 101 µM.
In turn, `C[C@H](N)C(=O)N[C@@H](C)C(=O)NC[C@H]1O[C@H](O[C@H]2[C@@H](O)[C@@H](O[C@H]3O[C@@H](CO)[C@@H](O)[C@H](N)[C@@H]3O)[C@H](N)C[C@@H]2N)[C@H](O)[C@H](O)[C@@H]1O` displayed an IC50 of 49.4 µM.
The compound `CCNC1CC(N)C(OC2OC(CNC(=O)CN)=CCC2N)C(O)C1OC1OCC(C)(O)C(NC)C1O` (centres undefined) yielded an IC50 of 118 µM.
